Reference: patent US11142533B2, “Macrocycles for use in treating disease” (TURNING POINT THERAPEUTICS, INC., priority 2019, dated 2021)
Values after ≈ are worked out from the molar mass of the structure shown. Like-named read-outs stand apart in the source and are kept apart here.

Assays:
[1] = Solubility test in phosphate buffer; assay type: physicochemical; settings: aqueous buffer, thermodynamic from solid; phosphate buffer pH 7.4, room temperature
Experimental: Aliquot of 1.035 mL phosphate buffer (PB) (pH 7.4) was added into 2.07 mg of the test compound (for a 2 mg·mL^−1 upper limiting solubility determination) in a 1.5 mL tubes. The mixture was ultrasonicly treated for 10 min and rotated on rotator at room temperature for more than 8 hr. After rotation, the tube was ultrasonicly treated for 10 min and centrifuged at 13000 rpm for 15 min. 0.3 mL of the supernatant was transferred into a 0.6 mL tube and discarded after rotated for 5 min for rinsing, then about 0.6 mL of the residual supernatant was transferred into the rinsed tube and centrifuged again at 13000 rpm for 15 min. The supernatant after every centrifugation was appropriately diluted and transferred for LC-MS/MS analysis where a standard curve was constructed with 7 concentration levels (2, 4, 10, 20, 40, 100 and 200 μg mL^−1) and used for the quantitation of the analyte in PB.

[2] = Liver microsomal stability; assay type: in vitro ADME; settings: pH 7.4, 1 μM compound, 0.5 mg/mL liver microsome protein
Experimental: The test compound stock solution was prepared by weighing 1.07 mg and dissolving in 0.261 mL of DMSO to achieve the concentration of 10 mM. Working solution of the test compound was prepared by diluting stock solution using DMSO to yield the concentration of 300 μM.
The assay was carried out in 96-well microtiter plates. In each well, the reaction mixture (25 μL) contained the test compound at the final concentration of 1 μM, 0.5 mg/mL liver microsome protein, and 1 mM NADPH in 100 mM potassium phosphate, pH 7.4 buffer with 3.3 mM MgCl2. The mixtures were incubated in duplicate at 37° C. for 0, 15, 30 or 60 minutes, and 150 μL of quench solution (acetonitrile with 0.1% formic acid) with internal standard (bucetin for positive ESI mode) was added into each well of reaction to terminate the reaction. The plates were then sealed and centrifuged at 4° C. for 15 minutes at 4000 rpm. The resulting supernatant was transferred to fresh plates for LC-MS/MS analysis of the test compounds. Verapamil was used as the positive control to validate the assay system.
All samples were analyzed with LC-MS/MS using an AB Sciex API 4000 instrument, coupled to a Shimadzu LC-20AD LC Pump system. Analytical samples were separated using a Waters Atlantis T3 dC18 reverse phase HPLC column (20 mm×2.1 mm) at a flow rate of 0.5 mL/min. The mobile phase consisted of 0.1% formic acid in water (solvent A) and 0.1% formic acid in acetonitrile (solvent B).
The extent of metabolism was calculated based on the disappearance of the test compound, compared to its initial concentration. The initial rates of clearance of test compounds were calculated using linear regression plot of semi-log % remaining of compounds versus time. The elimination rate constant (equals to negative slope) of the linear regression plot was then used to determine t112 and the intrinsic clearance (CLInt) using the following formula: k=−slope t1/2=0.693/k CLint=k/Cprotein
Where Cprotein (mg/mL) is the microsomal protein concentration in the incubation system.

[3] = target: T1, Ba/F3 cell-derived tumors with the EML4-ALK G1202R fusion (Homo sapiens, UniProt Q9UM73, G1202R); settings: after 7 days of treatment
T1 sequence (Q9UM73 with tags, fused parts or gaps G1202R): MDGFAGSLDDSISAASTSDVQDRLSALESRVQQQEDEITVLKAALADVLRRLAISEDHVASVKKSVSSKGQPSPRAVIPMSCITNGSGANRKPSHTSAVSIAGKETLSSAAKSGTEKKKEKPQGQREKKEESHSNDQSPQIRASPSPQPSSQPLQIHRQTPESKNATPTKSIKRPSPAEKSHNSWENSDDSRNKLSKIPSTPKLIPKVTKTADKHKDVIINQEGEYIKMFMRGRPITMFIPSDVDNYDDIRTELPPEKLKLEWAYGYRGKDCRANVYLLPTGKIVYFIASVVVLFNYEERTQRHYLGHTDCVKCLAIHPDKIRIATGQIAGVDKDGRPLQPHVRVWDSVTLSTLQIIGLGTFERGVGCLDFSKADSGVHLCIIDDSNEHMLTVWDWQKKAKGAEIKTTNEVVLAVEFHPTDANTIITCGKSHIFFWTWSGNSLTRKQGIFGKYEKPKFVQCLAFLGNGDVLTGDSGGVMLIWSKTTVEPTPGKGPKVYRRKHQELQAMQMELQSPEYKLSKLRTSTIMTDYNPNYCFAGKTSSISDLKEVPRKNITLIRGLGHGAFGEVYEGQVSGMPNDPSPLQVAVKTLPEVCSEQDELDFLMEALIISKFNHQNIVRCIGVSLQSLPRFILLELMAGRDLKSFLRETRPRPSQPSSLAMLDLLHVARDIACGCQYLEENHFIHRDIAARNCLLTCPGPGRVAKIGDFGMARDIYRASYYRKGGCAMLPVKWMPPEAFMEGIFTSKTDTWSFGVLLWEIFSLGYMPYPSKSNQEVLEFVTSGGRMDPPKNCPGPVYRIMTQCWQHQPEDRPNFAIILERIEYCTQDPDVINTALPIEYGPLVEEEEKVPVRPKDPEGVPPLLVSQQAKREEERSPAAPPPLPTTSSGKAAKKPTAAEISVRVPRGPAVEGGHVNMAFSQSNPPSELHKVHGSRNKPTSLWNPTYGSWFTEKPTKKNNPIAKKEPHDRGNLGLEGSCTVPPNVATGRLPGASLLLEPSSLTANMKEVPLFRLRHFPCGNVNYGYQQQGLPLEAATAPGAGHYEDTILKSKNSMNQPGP

KM12 (TPM3-TRKA) = KM12 (TPM3-TRKA) (Homo sapiens, UniProt P04629); assay: Cell proliferation assay (CellTiter-Glo)
Chain of KM12 (TPM3-TRKA) (P04629 with tags, fused parts or gaps): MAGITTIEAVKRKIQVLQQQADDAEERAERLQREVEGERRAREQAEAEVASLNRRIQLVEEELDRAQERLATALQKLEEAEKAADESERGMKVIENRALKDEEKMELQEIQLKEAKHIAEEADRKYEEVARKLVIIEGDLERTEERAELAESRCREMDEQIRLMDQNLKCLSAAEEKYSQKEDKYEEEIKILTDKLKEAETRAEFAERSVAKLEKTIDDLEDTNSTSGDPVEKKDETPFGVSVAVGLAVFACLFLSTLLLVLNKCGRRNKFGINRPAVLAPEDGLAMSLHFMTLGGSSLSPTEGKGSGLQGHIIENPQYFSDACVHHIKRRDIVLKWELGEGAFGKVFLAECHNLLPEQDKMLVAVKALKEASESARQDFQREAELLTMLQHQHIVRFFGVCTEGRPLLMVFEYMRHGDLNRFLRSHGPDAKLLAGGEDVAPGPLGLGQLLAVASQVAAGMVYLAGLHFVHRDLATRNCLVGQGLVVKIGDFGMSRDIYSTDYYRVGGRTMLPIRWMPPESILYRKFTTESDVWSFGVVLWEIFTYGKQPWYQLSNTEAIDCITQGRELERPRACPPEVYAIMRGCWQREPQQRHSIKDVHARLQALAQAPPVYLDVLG

KG-1 cell (OP2-FGFR1) = KG-1 cell (OP2-FGFR1) (Homo sapiens, UniProt P11362); assay: Cell proliferation assay (CellTiter-Glo)
Chain of KG-1 cell (OP2-FGFR1) (P11362 456-822 limits assumed): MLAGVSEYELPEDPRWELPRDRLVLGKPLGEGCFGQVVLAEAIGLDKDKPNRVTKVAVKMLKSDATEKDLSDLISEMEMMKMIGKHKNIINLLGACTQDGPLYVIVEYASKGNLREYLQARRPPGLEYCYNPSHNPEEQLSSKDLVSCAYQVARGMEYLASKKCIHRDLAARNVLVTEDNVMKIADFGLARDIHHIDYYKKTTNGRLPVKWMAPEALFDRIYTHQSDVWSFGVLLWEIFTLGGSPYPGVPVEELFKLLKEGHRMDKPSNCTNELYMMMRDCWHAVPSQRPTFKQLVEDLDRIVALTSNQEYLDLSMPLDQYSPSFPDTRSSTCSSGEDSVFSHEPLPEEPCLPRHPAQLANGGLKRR

[4] = female, mouse, liver microsomes

solubility [1] [µg/mL] | microsomal CLint at 1 µM [2, 4] [µL/min/mg] | microsomal CLint at 1 µM ([2]; female, rat, liver microsomes) [µL/min/mg] | microsomal CLint at 1 µM ([2]; human, pooled liver microsomes) [µL/min/mg] | Tumor growth inhibition (TGI) ([3]; 3 mg/kg BID oral) [%] | Tumor growth inhibition (TGI) ([3]; 10 mg/kg BID oral) [%] | IC50 (KM12 (TPM3-TRKA)) [nM] | IC50 (KG-1 cell (OP2-FGFR1)) [nM] | Tumor growth inhibition (TGI) ([3]; 2 mg/kg BID oral) [%] | Tumor growth inhibition (TGI) ([3]; 5 mg/kg BID oral) [%] | Structure (SMILES) | body weight ([3]; 3 and 10 mg/kg BID) | body weight ([3]; 2, 5, 10 mg/kg BID)
2.6 (≈ 5.66 µM) | 25 | 3.5 | 8.8 | 51 | 77 | < 0.2 | 3.8 |  |  | O=C1NCC2(CC2)COc2ccc(F)cc2CN2c3nc4c1cnn4cc3OC[C@H]2C(F)F [Compound 2, (16′S)-16′-(Difluoromethyl)-12′-fluoro-4′H,5′H,6′H,8′H,14′H,16′H,17′H-spiro[cyclopropane-1,7′-[1,19](metheno)[1,4]oxazino[3,4-j]pyrazolo[4,3-g][1,5,9,11]benzoxatriazacyclotetradecin]-4′-one] | no body weight loss | 
3.3 (≈ 7.38 µM) | 11 | 1.5 | 8.3 |  | 200 | < 0.2 | 554 | 64 | 120 | CC1(C)COc2ccc(F)cc2CN2c3nc4c(cnn4cc3OC[C@H]2C(F)F)C(=O)N1 [Compound 1, (4S)-4-(Difluoromethyl)-8-fluoro-13,13-dimethyl-3,4,13,14-tetrahydro-6H-18,1-(metheno)[1,4]oxazino[3,4-i]pyrazolo[4,3-f][1,4,8,10]benzoxatriazacyclotridecin-15(12H)-one] |  | no body weight loss
